Results from patent US12358921B2, “Antiviral heterocyclic compounds” (priority 2022, dated 2025).

The compounds below were run on hMPV A2 TN/94-49 (assay: HMPV antiviral assay Method 2 (LLC-MK2 cells with CP-100-356, ATP-Lite)). Details: hMPV A2 TN/94-49, LLC-MK2 cells, 4 μM CP-100-356, Method 2.
Assay type: cell-based
Experimental: In vitro HMPV antiviral activity was evaluated using the clinical isolate A2 strain TN 94-49 (obtained from Dr. John Williams, Vanderbilt University, Tennessee) and LLC-MK2 cells (Millipore Sigma CB_85062804), an immortalized kidney epithelial cell line from Macaca mulatta. Compounds were resuspended in dimethyl sulfoxide (DMSO) at 10 mM, serially diluted and added to a 384-well source plate. Subsequently, the compounds were diluted and transferred onto 384-well assay plates using the Echo-650 automated liquid handling system (Beckman Coulter, Indiana). The test compounds were assessed in duplicate at a top concentration of 200 nM followed by 2.5-fold serial dilutions to give a total of 10 concentration points. DMSO control wells were also included on the assay plates and were either infected or not, acting as positive and negative controls. A2 TN 94-49 virus infections were performed in-suspension with LLC-MK2 cells. The cells were washed twice with PBS and removed from the cell-culture flask with 0.25% trypsin-EDTA (Thermo Fisher Scientific, MA). The trypsin-EDTA was inactivated by resuspending in 2% fetal bovine serum (FBS) and OptiMEM (ThermoFisher Scientific, MA) containing 1% antibiotic-antimycotic. Cells were pelleted by centrifuging for 5 minutes at 800 rpm, the supernatant was removed, and cells were re-suspended and washed in PBS plus 100 μg/mL CaCl2). This step was performed twice. Cells were then re-suspended in serum-free (SF)-OptiMEM containing 4 μg/mL TPCK-Trypsin (Sigma Aldrich, MO), 1% antibiotic-antimycotic (ThermoFisher Scientific, MA), 100 μg/mL CaCl2), and 4 μM of CP-100-356, a P-glycoprotein inhibitor. Cells were counted and seeded at a density of 5,000 cells/well, 12.5 μL/well. Virus infections were done at a multiplicity of infection (MOI) of 0.16 with 12.5 μL added per well. Virus infections were performed in infection media which contained SF-OptiMEM, 100 μg/mL CaCl2) and 1% antibiotic-antimycotic. HMPV viral stocks are suspended in infection media+5% glycerol, thus an equal volume of infection media+5% glycerol was added to uninfected wells to equalize the final % glycerol across all wells of the assay plate. The final concentration of TPCK-trypsin was 2 μg/mL. The final concentration of CP-100-356 was 2 μM. The assay plates were incubated at 37° C., 5% CO2 for 7 days. After 7 days incubation, 12.5 μL of ATP-Lite (PerkinElmer, MA) was added to each well and the raw luminescence values were determined using the Envision 2104 (Perkin Elmer, MA). The average of the raw luminescence values for the cells and virus only positive control wells was subtracted from all conditions tested and the percent cell health was determined by dividing these values by the average of the cells only negative control wells. EC50 values were then calculated by non-linear regression using a four-parameter curve logistic equation. The curve fit model employed was XLFit Dose Response One Site Model 200: y=(A+(B/(1+((x/C)^D)))), where A is the minimum y value, B is the maximum y value, C is the log EC50value, and D is the slope factor.

EC50 | Compound
> 200 nM | C[C@]1(C(N)=O)COc2c1cc([C@@](O)(CNC(=O)c1ccc3nc(-c4ccccc4)oc3c1)c1ccccc1)nc2-c1cc(Cl)c(F)cc1F [Example 227]
> 200 nM | COc1cc(C(=O)NC[C@@](O)(c2ccccc2)c2cc3c(c(-c4cc(S(C)(=O)=O)ccc4F)n2)OC[C@]3(C)C(N)=O)cc2cn(C3(F)CC3)nc12 [Example 372]
< 200 nM | COc1cc(C(=O)NC[C@@](O)(c2ccccc2)c2cc3c(c(-c4ccc5c(c4)OC(F)(F)O5)n2)OC[C@]3(C)C(N)=O)cc2oc(C)nc12 [Example 201]
< 200 nM | COc1cc(C(=O)NCC(O)(c2ccc(F)cn2)c2cc3c(c(-c4cc(Cl)c(F)cc4F)n2)OC[C@]3(C)C(N)=O)cc2cn(C3CC3)nc12 (stereo partly shown) [Example 210]
< 200 nM | COc1cc(F)c(F)cc1-c1nc([C@@](O)(CNC(=O)c2cc(OC)c3nn(C4(F)CC4)cc3c2)c2ccccc2)cc2c1OC[C@]2(C)C(N)=O [Example 365]
> 200 nM | COc1cc(OC)c2cc(C(=O)NC[C@@](O)(c3ccccc3)c3cc4c(c(-c5cc(Cl)c(F)cc5F)n3)OC[C@]4(C)C(N)=O)[nH]c2c1 [Example 94]
< 200 nM | Cc1nc2c(OC3CC3)cc(C(=O)NC[C@@](O)(c3ccccc3)c3cc4c(c(-c5cc(Cl)c(F)cc5F)n3)OC[C@]4(C)C(N)=O)cc2o1 [Example 234]
< 200 nM | COc1cc([C@](O)(CNC(=O)c2cc(OC)c3nn(C4CC4)cc3c2)c2cc3c(c(-c4cc(Cl)c(F)cc4F)n2)OC[C@]3(C)C(N)=O)cc(F)n1 [Example 503]
< 200 nM | COc1cc(C(=O)NC[C@@](O)(c2ccccc2)c2cc3c(c(-c4cc(Cl)ccc4F)n2)OC[C@]3(C)C(N)=O)cc2oc(C3CC3)nc12 [Example 331]
< 200 nM | COc1cc(C(=O)NC[C@@](O)(c2ccnc(F)c2)c2cc3c(c(-c4cccc(Cl)c4Cl)n2)OC[C@]3(C)C(N)=O)cc2cn(C3CC3)nc12 [Example 492]
< 200 nM | C[C@]1(C(N)=O)COc2c1cc([C@@](O)(CNC(=O)c1cc(OC(F)F)c3ncc(Cl)cc3c1)c1ccccc1)nc2-c1cc(Cl)c(F)cc1F [Example 231]
< 200 nM | COc1cccc(-c2nc([C@@](O)(CNC(=O)c3cc(OC)c4nn(C5(F)CC5)cc4c3)c3ccccc3)cc3c2OC[C@]3(C)C(N)=O)c1Cl [Example 374]
> 200 nM | C[C@]1(C(N)=O)COc2c1cc([C@@](O)(CNC(=O)c1cc(Cl)c3nn(C(F)F)cc3c1)c1ccccc1)nc2-c1cc(Cl)c(F)cc1F [Example 102]
< 200 nM | C[C@]1(C(N)=O)COc2c1cc([C@@](O)(CNC(=O)c1cc(C(F)(F)F)c3nn(C4CC4)cc3c1)c1ccccc1)nc2-c1cc(Cl)c(F)cc1F [Example 228]
< 200 nM | COc1cc(C(=O)NC[C@@](O)(c2ccccc2)c2cc3c(c(-c4cc(C(F)(F)F)ccc4F)n2)OC[C@]3(C)C(N)=O)cc2oc(C3CC3)nc12 [Example 332]
< 200 nM | COc1cc(C(=O)NC[C@@](O)(c2cnoc2)c2cc3c(c(-c4cc(Cl)c(F)cc4F)n2)OC[C@]3(C)C(N)=O)cc2cn(C3CC3)nc12 [Example 491]
< 200 nM | C[C@]1(C(N)=O)COc2c1cc([C@@](O)(CNC(=O)c1cc(OC3CC3)c3nc(C4CC4)oc3c1)c1ccccc1)nc2-c1cc(Cl)c(F)cc1F [Example 233]
< 200 nM | COc1cc([C@](O)(CNC(=O)c2cc(OC)c3nn(C4CC4)cc3c2)c2cc3c(c(-c4cccc(Cl)c4Cl)n2)OC[C@]3(C)C(N)=O)ccn1 [Example 494]
< 200 nM | C[C@]1(C(N)=O)COc2c1cc([C@@](O)(CNC(=O)c1cc(Cl)c3nc(C4CC4)oc3c1)c1ccccc1)nc2-c1cc(Cl)c(F)cc1F [Example 232]
> 200 nM | C[C@]1(C(N)=O)COc2c1cc([C@@](O)(CNC(=O)c1ccc3nc(C4CCC4)oc3c1)c1ccccc1)nc2-c1cc(Cl)c(F)cc1F [Example 221]
> 200 nM | CC(C)c1nc2ccc(C(=O)NC[C@@](O)(c3ccccc3)c3cc4c(c(-c5cc(Cl)c(F)cc5F)n3)OC[C@]4(C)C(N)=O)cc2o1 [Example 224]
< 200 nM | C[C@]1(C(N)=O)COc2c1cc([C@@](O)(CNC(=O)c1ccc3nc(C4CC4)oc3c1)c1ccccc1)nc2-c1cc(F)c(F)cc1F [Example 194]

EC50 | Compound
< 200 nM | C[C@]1(C(N)=O)COc2c1cc([C@@](O)(CNC(=O)c1cc(OC3CC3)n3nc(C4CC4)cc3c1)c1ccccc1)nc2-c1cc(Cl)c(F)cc1F [Example 191]
> 200 nM | C[C@]1(C(N)=O)COc2c1cc([C@@](O)(CNC(=O)c1cc(OC3CC3)c3nc(C4CC4)sc3c1)c1ccccc1)nc2-c1cc(Cl)c(F)cc1F [Example 190]
> 200 nM | COc1cc(C(=O)NCC(O)(c2ccccc2)c2cc3c(c(-c4ccc(F)cc4)n2)OC[C@]3(C)C(N)=O)cc2cn(C3(F)CC3)nc12 (stereo partly shown) [Example 361]
> 200 nM | C[C@]1(C(N)=O)COc2c1cc([C@@](O)(CNC(=O)c1ccc3nc(C4CC4)oc3c1)c1ccccc1)nc2-c1ccc2c(c1)OC(F)(F)O2 [Example 199]
< 200 nM | COc1cc(C(=O)NC[C@@](O)(c2cccc(F)c2)c2cc3c(c(-c4cccc(Cl)c4Cl)n2)OC[C@]3(C)C(N)=O)cc2cc(Cl)cnc12 [Example 333]
< 200 nM | C[C@]1(C(N)=O)COc2c1cc([C@@](O)(CNC(=O)c1cc(OC(F)F)c3nc(C4CC4)oc3c1)c1ccccc1)nc2-c1cc(Cl)c(F)cc1F [Example 216]
< 200 nM | COc1cc(C(=O)NC[C@@](O)(c2ccccc2)c2cc3c(c(-c4cccc(F)c4F)n2)OC[C@]3(C)C(N)=O)cc2cn(C3(F)CC3)nc12 [Example 367]
< 200 nM | C[C@]1(C(N)=O)COc2c1cc([C@@](O)(CNC(=O)c1ccc3nc(C4CC4)oc3c1)c1cccc(F)c1)nc2-c1ccc(F)c(Cl)c1Cl [Example 312]
> 200 nM | C[C@]1(C(N)=O)COc2c1cc([C@@](O)(CNC(=O)c1ccc3nc(-c4ccc5nc(C(F)F)oc5c4)oc3c1)c1ccccc1)nc2-c1cc(Cl)c(F)cc1F [Example 223]
< 200 nM | Cc1cc(C(=O)NC[C@@](O)(c2ccccc2)c2cc3c(c(-c4cc(Cl)c(F)cc4F)n2)OC[C@]3(C)C(N)=O)cc2cn[nH]c12 [Example 118]
> 200 nM | Cc1nc2c(OC(F)(F)F)cc(C(=O)NC[C@@](O)(c3ccccc3)c3cc4c(c(-c5cc(Cl)c(F)cc5F)n3)OC[C@]4(C)C(N)=O)cc2s1 [Example 188]
< 200 nM | COc1cc(C(=O)NC[C@@](O)(c2cnc(C3CC3)nc2)c2cc3c(c(-c4cc(Cl)c(F)cc4F)n2)OC[C@]3(C)C(N)=O)cc2cn(C3CC3)nc12 [Example 478]
< 200 nM | C[C@]1(C(N)=O)COc2c1cc([C@@](O)(CNC(=O)c1ccc3nc(C4CC4)oc3c1)c1ccccc1)nc2-c1cc(C(F)F)c(F)cc1F [Example 311]
< 200 nM | COc1cc(C(=O)NC[C@@](O)(c2cncnc2)c2cc3c(c(-c4cc(Cl)c(F)cc4F)n2)OC[C@]3(C)C(N)=O)cc2cn(C3CC3)nc12 [Example 479]
< 200 nM | COc1cc(C(=O)NCC(O)(c2ccccc2)c2cc3c(c(-c4ccc(F)c(Cl)c4)n2)OC[C@]3(C)C(N)=O)cc2cn(C3(F)CC3)nc12 (stereo partly shown) [Example 362]
< 200 nM | COc1cc(C(=O)NC[C@](O)(c2cc3c(c(-c4cc(Cl)c(F)cc4F)n2)OC[C@]3(C)C(N)=O)c2ccnn2C)cc2cn(C3CC3)nc12 [Example 481]
< 200 nM | CNc1cc([C@](O)(CNC(=O)c2cc(OC)c3nn(C4CC4)cc3c2)c2cc3c(c(-c4cc(Cl)c(F)cc4F)n2)OC[C@]3(C)C(N)=O)ccn1 [Example 490]
< 200 nM | COc1c(F)ccc(-c2nc([C@@](O)(CNC(=O)c3cc(OC)c4nn(C5(F)CC5)cc4c3)c3ccccc3)cc3c2OC[C@]3(C)C(N)=O)c1Cl [Example 375]
> 200 nM | COc1cc(C(=O)NCC(O)(c2cccc(F)c2)c2cc3c(c(-c4cccc(Cl)c4C#N)n2)OC[C@]3(C)C(N)=O)cc2cn(C3(F)CC3)nc12 (stereo partly shown) [Example 399]
< 200 nM | C[C@]1(C(N)=O)COc2c1cc([C@@](O)(CNC(=O)c1cc(OC3CC3)n3nc(C4CC4)cc3c1)c1cccc(F)c1)nc2-c1cccc(Cl)c1Cl [Example 335]
> 200 nM | C[C@]1(C(N)=O)COc2c1cc([C@@](O)(CNC(=O)c1ccc3nc(C(F)F)oc3c1)c1ccccc1)nc2-c1cc(Cl)c(F)cc1F [Example 222]
